Test results published in ChEMBL document CHEMBL3045679, “Microwave-assisted synthesis and pharmacological studies of novel 5-deazaalloxazine derivatives” (2012).

Key:
Type in all cases: functional
[1] = test system: Klebsiella aerogenes; experiment: Antibacterial activity against Enterobacter aerogenes NCIM 2239 at 5 ug/disk after 24 hr by disk diffusion method; conditions: NCIM 2239, 24 h, read-out: DIZ
[2] = test system: Bacillus subtilis; experiment: Antibacterial activity against Bacillus subtilis NCIM 2063 at 5 ug/disk after 24 hr by disk diffusion method; conditions: NCIM 2063, 24 h, read-out: DIZ
[3] = test system: Pseudomonas aeruginosa; experiment: Antibacterial activity against Pseudomonas aeruginosa NCIM 2200 at 5 ug/disk after 24 hr by disk diffusion method; conditions: NCIM 2200, 24 h, read-out: DIZ
[4] = test system: Streptomyces albus; experiment: Antibacterial activity against Streptomyces albus NCIM 2178 at 5 ug/disk after 24 hr by disk diffusion method; conditions: NCIM 2178, 24 h, read-out: DIZ
[5] = test system: Bacillus cereus; experiment: Antibacterial activity against Bacillus cereus NCIM 2155 at 5 ug/disk after 24 hr by disk diffusion method; conditions: NCIM 2155, 24 h, read-out: DIZ
[6] = test system: Escherichia coli; experiment: Antibacterial activity against Escherichia coli NCIM 2065 at 5 ug/disk after 24 hr by disk diffusion method; conditions: NCIM 2065, 24 h, read-out: DIZ
[7] = test system: Candida albicans; experiment: Antifungal activity against Candida albicans NCIM 3471 at 10 ug/disk after 72 hr by disk diffusion method; conditions: NCIM 3471, 72 h, read-out: DIZ
[8] = test system: Aspergillus flavus; experiment: Antifungal activity against Aspergillus flavus NCIM 535 at 10 ug/disk after 72 hr by disk diffusion method; conditions: NCIM 535, 72 h, read-out: DIZ
[9] = test system: Rhodotorula mucilaginosa; experiment: Antifungal activity against Rhodotorula mucilaginosa NCIM 3174 at 10 ug/disk after 72 hr by disk diffusion method; conditions: NCIM 3174, 72 h, read-out: DIZ
[10] = test system: Lipomyces lipofer; experiment: Antifungal activity against Lipomyces lipofer NCIM 3252 at 10 ug/disk after 72 hr by disk diffusion method; conditions: NCIM 3252, 72 h, read-out: DIZ
[11] = test system: Aspergillus niger; experiment: Antifungal activity against Aspergillus niger NCIM 1196 at 10 ug/disk after 72 hr by disk diffusion method; conditions: NCIM 1196, 72 h, read-out: DIZ
[12] = test system: Penicillium chrysogenum; experiment: Antifungal activity against Penicillium chrysogenum NCIM 707 at 10 ug/disk after 72 hr by disk diffusion method; conditions: NCIM 707, 72 h, read-out: DIZ

`CC1COc2c(N3CCN(C)CC3)c(F)cc3c(=O)c(C(=O)O)cn1c23` (configuration not stated) [OFLOXACIN] showed a zone of inhibition at 5 µg/disc [1] of 21 mm, a zone of inhibition at 5 µg/disc [2] of 22 mm and a zone of inhibition at 5 µg/disc [3] of 22 mm. It also gave a zone of inhibition at 5 µg/disc [4] of 21 mm, a zone of inhibition at 5 µg/disc [5] of 19 mm and a zone of inhibition at 5 µg/disc [6] of 23 mm.
`Clc1ccccc1C(c1ccccc1)(c1ccccc1)n1ccnc1` [CLOTRIMAZOLE] was tested, and the zone of inhibition at 10 µg/disc [7] was 18 mm, the zone of inhibition at 10 µg/disc [8] was 16 mm and the zone of inhibition at 10 µg/disc [9] was 17 mm. The zone of inhibition at 10 µg/disc [10] was 18 mm, the zone of inhibition at 10 µg/disc [11] was 16 mm and the zone of inhibition at 10 µg/disc [12] was 21 mm.
